Laboratory results as given in ChEMBL document CHEMBL1140266, “(2R)-2-methylchromane-2-carboxylic acids: discovery of selective PPARalpha agonists as hypolipidemic agents” (Bioorg Med Chem Lett, 2005).

Experiments:
[1] = system: Cricetinae gen. sp.; assay type: functional; conditions: at 10 mg/kg
Description: In vivo efficacy at 10 mpk against Hamster for triglceride lowering effect after oral dosing; Number of animals= 9 (vehicle 0.5% methylcellulose)

[2] = in vivo; conditions: Sprague-Dawley, rat, po, 2 mg/kg
[3] = in vivo; conditions: Sprague-Dawley, rat, iv, 0.5 mg/kg
[4] = target: T1, Peroxisome proliferator-activated receptor delta (Homo sapiens, UniProt Q03181)
T1 sequence (Q03181 whole entry): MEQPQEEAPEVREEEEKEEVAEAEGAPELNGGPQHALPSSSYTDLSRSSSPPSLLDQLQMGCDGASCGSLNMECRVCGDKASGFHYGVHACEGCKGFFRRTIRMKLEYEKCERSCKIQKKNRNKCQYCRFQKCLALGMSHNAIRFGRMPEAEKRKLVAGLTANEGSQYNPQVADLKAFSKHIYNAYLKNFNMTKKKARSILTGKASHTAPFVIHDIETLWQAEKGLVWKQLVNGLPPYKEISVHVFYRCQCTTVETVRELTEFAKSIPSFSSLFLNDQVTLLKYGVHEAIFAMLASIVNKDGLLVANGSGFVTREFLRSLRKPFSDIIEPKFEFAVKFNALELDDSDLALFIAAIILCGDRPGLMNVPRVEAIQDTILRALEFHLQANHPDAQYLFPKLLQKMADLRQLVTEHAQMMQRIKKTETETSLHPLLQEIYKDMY
Description: In vitro binding affinity against human PPARdelta

[5] = in vivo; conditions: Sprague-Dawley, rat, iv, 0.5 mg/kg; remark: listed apart in the source
Description: Hail-life period determined against Sprague-Dawley Rat at 0.5 mg/kg after intravenous administration; (Number of rats = 3)

[6] = system: Cricetinae gen. sp.; assay type: functional, Cricetulus griseus; conditions: at 10 mg/kg
Description: In vivo efficacy at 10 mpk against Hamster for cholesterol lowering effect after oral dosing; Number of animals= 9 (vehicle 0.5% methylcellulose)

[7] = target: T2, Peroxisome proliferator-activated receptor alpha (Homo sapiens, UniProt Q07869); assay type: functional, cell-based, COS-1
T2 sequence (Q07869 whole entry): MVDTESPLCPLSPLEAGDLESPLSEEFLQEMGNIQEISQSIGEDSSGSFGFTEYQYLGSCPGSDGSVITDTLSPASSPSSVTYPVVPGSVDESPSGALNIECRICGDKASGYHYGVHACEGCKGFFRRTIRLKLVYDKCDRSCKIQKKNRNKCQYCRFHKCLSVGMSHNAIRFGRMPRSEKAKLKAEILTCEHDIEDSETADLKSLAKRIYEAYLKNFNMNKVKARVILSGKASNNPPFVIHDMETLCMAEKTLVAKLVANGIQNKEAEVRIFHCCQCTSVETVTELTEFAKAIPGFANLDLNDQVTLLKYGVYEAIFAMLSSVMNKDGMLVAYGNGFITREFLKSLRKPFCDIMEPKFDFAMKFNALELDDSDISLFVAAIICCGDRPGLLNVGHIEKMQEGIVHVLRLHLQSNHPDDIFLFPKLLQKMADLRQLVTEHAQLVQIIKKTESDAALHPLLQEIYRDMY
Description: Agonist activity against human PPARalpha in COS-1 cell Gal4 assay

[8] = target: T2, Peroxisome proliferator-activated receptor alpha
Description: In vitro binding affinity against human PPARalpha

[9] = target: T2, Peroxisome proliferator-activated receptor alpha; assay type: functional, cell-based; conditions: cos-1
Description: Agonist activity against human PPARalpha in COS-1 cell Gal4 assay; NA= Not active (less than 20% activation at 10 uM)

[10] = in vivo; conditions: cercopithecidae, iv, 0.5 mg/kg
Description: Hail-life period determined against adult Rhesus monkey at 0.5 mg/kg after intravenous administration; (Number of rats = 3)

[11] = in vivo; conditions: rhesus monkey, po, 2 mg/kg
Description: Bioavailability determined against adult Rhesus monkey at 2 mg/kg after peroral administration

[12] = in vivo; conditions: beagle, dog, po, 2 mg/kg
Description: Bioavailability determined against adult Beagle dog at 2 mg/kg after peroral administration

[13] = in vivo; conditions: beagle, dog, iv, 0.5 mg/kg
Description: Hail-life period determined against adult Beagle dog at 0.5 mg/kg after intravenous administration; (Number of rats = 3)

[14] = system: Cricetinae gen. sp.; assay type: functional, Cricetulus griseus; conditions: at 10 mg/kg; remark: listed apart in the source
Description: In vivo efficacy at 10 mpk against Hamster for triglyceride lowering effect after oral dosing; Number of animals= 9 (vehicle 0.5% methylcellulose)

[15] = in vivo; conditions: beagle, dog, iv, 0.5 mg/kg; remark: listed apart in the source
[16] = in vivo; conditions: cercopithecidae, iv, 0.5 mg/kg; remark: listed apart in the source

Structure (SMILES) | IC50 [4] | EC50 [7] | IC50 [8] | also measured
CC(C)Cc1ccc(OCCCOc2ccc3c(c2)O[C@@](C)(C(=O)O)CC3)c(Cl)c1 | 7.6 µM | 0.006 µM | 0.016 µM | Efficacy [1]: -29%; bioavailability [2]: 87%; clearance [3]: 0.156 L/h/kg; half-life [5]: 2.9 h; Efficacy [6]: -50%
CC(C)Oc1ccc(OCCCOc2ccc3c(c2)O[C@@](C)(C(=O)O)CC3)c(Cl)c1 | 7.4 µM | 0.04 µM | 0.24 µM | 
CC[C@]1(C(=O)O)CCc2ccc(OCCCOc3ccc(C4CCOCC4)cc3Cl)cc2O1 | > 50 µM | 0.022 µM | 0.71 µM | bioavailability [2]: 77%; clearance [3]: 0.936 L/h/kg; half-life [5]: 0.9 h
CC[C@]1(C(=O)O)CCc2ccc(OCCCOc3ccc(C(C)(C)C)cc3Cl)cc2O1 | > 50 µM | 0.028 µM | 0.18 µM | 
CC[C@]1(C(=O)O)CCc2ccc(OCCCOc3ccc(F)cc3Cl)cc2O1 | > 15 µM |  | > 15 µM | EC50 [9]: Not Active
CC[C@]1(C(=O)O)CCc2ccc(OCCCOc3ccc(C4CCC(C)(C)CC4)cc3Cl)cc2O1 | > 50 µM | 0.7 µM | 1.7 µM | bioavailability [2]: 95%; clearance [3]: 0.162 L/h/kg; half-life [5]: 6.8 h
CCOc1ccc(OCCCOc2ccc3c(c2)O[C@@](C)(C(=O)O)CC3)c(Cl)c1 | > 15 µM | 0.22 µM | 1.38 µM | 
CC(C)(C)c1ccc(OCCCOc2ccc3c(c2)O[C@@](C)(C(=O)O)CC3)c(Cl)c1 | > 15 µM | 0.08 µM | 0.23 µM | 
CC(C)c1ccc(OCCCOc2ccc3c(c2)O[C@@](C)(C(=O)O)CC3)c(Cl)c1 | > 15 µM | 0.023 µM | 0.048 µM | Efficacy [1]: -18%; bioavailability [2]: 54%; clearance [3]: 0.408 L/h/kg; half-life [5]: 1.3 h; Efficacy [6]: -40%
CCC(C)(C)c1ccc(OCCCOc2ccc3c(c2)O[C@@](C)(C(=O)O)CC3)c(Cl)c1 | 14 µM | 0.004 µM | 0.007 µM | 
CC[C@]1(C(=O)O)CCc2ccc(OCCCOc3ccc(C(F)(F)F)cc3Cl)cc2O1 | 2.3 µM | 0.036 µM | 0.09 µM | 
C[C@]1(C(=O)O)CCc2ccc(OCCCOc3ccc(C4CCC5(CC4)CC5)cc3Cl)cc2O1 | > 50 µM | 0.42 µM | 1.6 µM | 
C[C@]1(C(=O)O)CCc2ccc(OCCCOc3ccc(OCC(F)(F)F)cc3Cl)cc2O1 | > 15 µM | 0.04 µM | 0.11 µM | half-life [10]: 2.5 h; bioavailability [11]: 88%; bioavailability [2]: 60%; clearance [3]: 0.306 L/h/kg; half-life [5]: 2.7 h; bioavailability [12]: 100%; half-life [13]: 6.2 h; Efficacy [14]: -54%; Efficacy [6]: -60%; clearance [15]: 0.348 L/h/kg; clearance [16]: 0.336 L/h/kg
C[C@@]1(C(=O)O)CCc2ccc(OCCCOc3ccc(OCC(F)(F)F)cc3Cl)cc2O1 | > 50 µM |  | > 50 µM | EC50 [9]: Not Active
CC[C@]1(C(=O)O)CCc2ccc(OCCCOc3ccc(OC(F)(F)F)cc3Cl)cc2O1 | 1.9 µM | 0.006 µM | 0.037 µM | 
C[C@]1(C(=O)O)CCc2ccc(OCCCOc3ccc(OC(F)(F)F)cc3Cl)cc2O1 | 0.49 µM | 0.02 µM | 0.057 µM | 

Structure (SMILES) | IC50 [4] | EC50 [7] | IC50 [8] | also measured
COc1ccc(OCCCOc2ccc3c(c2)O[C@@](C)(C(=O)O)CC3)c(Cl)c1 | > 50 µM |  | 3.9 µM | 
CC[C@]1(C(=O)O)CCc2ccc(OCCCOc3ccc(OCC(F)(F)F)cc3Cl)cc2O1 | > 50 µM | 0.004 µM | 0.066 µM | 
CC[C@]1(C(=O)O)CCc2ccc(OCCCOc3ccc(Cl)cc3Cl)cc2O1 | 4.1 µM | 0.13 µM | 0.4 µM | 
C[C@]1(C(=O)O)CCc2ccc(OCCCOc3ccc(OCC4CC4)cc3Cl)cc2O1 | > 15 µM | 0.24 µM | 0.6 µM | bioavailability [2]: 76%; clearance [3]: 0.306 L/h/kg; half-life [5]: 2.9 h; Efficacy [14]: -13%; Efficacy [6]: -39%
C[C@]1(C(=O)O)CCc2ccc(OCCCOc3ccc(OCC4CCC4)cc3Cl)cc2O1 | > 15 µM | 0.14 µM | 0.39 µM | 
CC[C@]1(C(=O)O)CCc2ccc(OCCCOc3ccc(C4CCC5(CC4)CC5)cc3Cl)cc2O1 | > 50 µM | 0.3 µM | 0.61 µM | bioavailability [2]: 37%; clearance [3]: 0.0372 L/h/kg; half-life [5]: 4.5 h
C[C@]1(C(=O)O)CCc2ccc(OCCCOc3ccc(C4CCCC4)cc3Cl)cc2O1 | 10.5 µM | 0.009 µM | 0.04 µM | Efficacy [1]: -21%; bioavailability [2]: 54%; clearance [3]: 0.408 L/h/kg; half-life [5]: 1.3 h; Efficacy [6]: -40%
CC1(C)CCC(c2ccc(OCCCOc3ccc4c(c3)O[C@@](C)(C(=O)O)CC4)c(Cl)c2)CC1 | > 50 µM | 1 µM | 1.7 µM | 
C[C@]1(C(=O)O)CCc2ccc(OCCCOc3ccc(F)cc3Cl)cc2O1 | > 50 µM |  | > 15 µM | 
O=C(O)C1CCc2ccc(OCCCOc3ccc(OCC(F)(F)F)cc3Cl)cc2O1 (centres undefined) | 6.9 µM | 0.12 µM | 0.81 µM | 
C[C@]1(C(=O)O)CCc2ccc(OCCCOc3ccc(Oc4ccc(F)cc4)cc3Cl)cc2O1 | 5 µM | 0.061 µM | 0.14 µM | 
CC[C@]1(C(=O)O)CCc2ccc(OCCCOc3ccc(C(C)C)cc3Cl)cc2O1 | > 15 µM | 0.024 µM | 0.038 µM | 
C[C@]1(C(=O)O)CCc2ccc(OCCCOc3ccc(C4CCCCC4)cc3Cl)cc2O1 | > 15 µM | 0.002 µM | 0.028 µM | 
CC[C@]1(C(=O)O)CCc2ccc(OCCCOc3ccc(C4CCCCC4)cc3Cl)cc2O1 | > 50 µM | 0.005 µM | 0.015 µM | bioavailability [2]: 57%; clearance [3]: 0.492 L/h/kg; half-life [5]: 1.2 h
CC[C@]1(C(=O)O)CCc2ccc(OCCCOc3ccc(CC(C)C)cc3Cl)cc2O1 | > 50 µM | 0.007 µM | 0.029 µM | 
